Source: a melting point compilation (Tetko et al.; mined from patent text by program, amines drawn as free bases though some values may be those of a salt)

SMILES | melting point
COc1ccccc1CC(=O)c1c(O)c2cccnc2n(-c2ccccc2)c1=O | 203 to 205 °C
O=[N+]([O-])c1cnn(-c2c(Cl)cc(C(F)(F)F)cc2Cl)c1 | 91 to 97 °C
O=C(CC(=O)C1CC1)c1ncc(Cl)cc1Cl | 50.2 to 52.7 °C
Cc1c(CBr)cccc1C(F)(F)C(F)(F)c1ccccc1 | 67 to 71 °C
Cc1nc2c(O)c(CC[C@@H](O)c3ccccc3)c(C(=O)N(C)C)cc2n1COCC[Si](C)(C)C | 142 to 143 °C
COc1cc2c(c3c1OC(C)(C)C3)C(c1cccc(SCC(N)=O)c1)=NC(C)(C)C2 | 118 to 120 °C
O=C(/C=C/c1ccncc1)N[C@H]1c2ccccc2C[C@H]1O | 205 to 207 °C
O=C(CN1C(=O)c2ccccc2S1(=O)=O)Nc1ccccc1 | 180 to 182 °C
CCOC(=O)c1sc(Cl)nc1-c1ccc(Cl)cc1 | 119 to 120 °C
CC1(C)C(=O)N(C(=O)NCC2(O)CCN(CC3(C(=O)O)CCC3)CC2)c2cc(F)ccc21 | 159 °C
C(=C\c1ccc2c(c1)COC(N[C@@H]1CCc3ccccc31)=N2)/c1cccnc1 | 132 °C
COc1ccc(C(=O)NCC[C@@H](O)C(=O)O)cc1 | 104 °C
CN(C)c1ccn2nc(S(=O)(=O)Nc3c(Cl)cccc3Cl)nc2n1 | > 310 °C
Cc1cc(-c2ccc(C(F)(F)F)cc2)cn2c(C(=O)O)cnc12 | 211 °C
COCCn1cc2c(C3C(=O)Nc4ccc(Br)cc43)nc(NCCCN(C)C)nc2n1 (stereo unspecified) | 297 to 298 °C
CCCCCCCCCCCc1nc2c(O)c(Cl)c(C)c(Cl)c2cc1CCCCCCCCCC | 54.5 to 56 °C
COc1ccc(Nc2nccc(-c3cccs3)n2)cc1 | 158 to 160 °C
Cc1nc(-c2ccc(=O)[nH]c2C)cs1 | 188 to 190 °C
Clc1ccc2nc(NC3=NCCN3)[nH]c2c1 | 241 to 242 °C
CC1(C)C2CCC1(CCCC(=O)O)CC2 | 72 to 73 °C
CCOc1nnc(COc2ccc(Oc3cccc(Cl)n3)cc2)s1 | 92 to 94 °C
O=C1Nc2cc3c(cc2OC1CCCN1CCN(c2ccc(F)cc2)CC1)CCCC3 (stereo unspecified) | 156 to 157 °C
COc1cc([C@H]2CC[C@H](c3cc(OC)c(OC)c(OC)c3)C2=O)cc(OC)c1OC (relative stereo) | 140 to 142 °C
Nc1ccc2c(c1)CC(NS(=O)(=O)c1ccc(Cl)cc1)C2 (stereo unspecified) | 145 to 147 °C
CN(C)CCNC(=O)c1ccc(-c2cccc(CSCCOc3ccccc3)c2)cc1 | 75 to 78 °C
COc1ccc(N2CCOCC2)c2sc(-c3nc4ccc(N(C)C)nc4[nH]3)nc12 | 120 to 130 °C

SMILES | melting point
C=CCC(C(=O)O)c1ccc(C(=O)c2cccs2)cc1 (stereo unspecified) | 117 °C
Cc1cc(COP(N)(=O)N(CCCl)CCCl)ccc1[N+](=O)[O-] (stereo unspecified) | 64 to 66 °C
COc1cc2c(c(OC)c1OC)CN(CCc1ccc([N+](=O)[O-])cc1)CC2 | 110 °C
CCCc1c(S)ccc2c(C)c(CC(=O)OC)c(=O)oc12 | 131 to 132 °C
CCOC(=O)CC12CC(c3ccccc31)c1ccccc12 | 81 to 84 °C
CCOC(=O)C(C#N)=NOS(=O)(=O)c1ccc(C)cc1 | 84 to 87 °C
Fc1ccc(-c2cn(CCC#Cc3ccccn3)nn2)cc1 | 120 to 122 °C
O=S1N=C(NCCCN(Cc2ccccc2)c2ccccn2)C(NCc2ccccn2)=N1 (stereo unspecified) | 139 to 140 °C
Cc1cc(-c2nnn(C)n2)cc(C)c1OCCCCc1nccn1C | 100 to 102 °C
N=C(Nc1ccc([N+](=O)[O-])cc1)c1ccccc1 | 240 to 241 °C
COc1cc(C)c(C(=O)CCCCCCCCCCCCCCCCCO)c(O)c1OC | 101 °C
CSc1ccc(C2(C(C)=O)C=CC=CC2)cc1 (stereo unspecified) | 182 to 184 °C
COC(=O)c1c(O)cccc1OCCCCNC(=O)CCc1ccc(N2CC(=O)NS2(=O)=O)c(O)c1 | 85 to 90 °C
Cc1cccc(O[C@@H]2CN(Cc3ccccc3)C[C@H]2O)c1C (relative stereo) | 100 to 104 °C
O=C(NCC1CCN(CC2(C(=O)O)CCC2)CC1)N1C(=O)C2(CCCC2)c2ccc(F)cc21 | 150 °C
O=S(=O)(c1ccc2nccnc2c1)c1cccc2cnccc12 | 187 to 189 °C
COC(=O)CCN(CC(=O)O)CC(=O)O | 141 °C
Clc1cccc(Cl)c1-c1nsnc1OCCBr | 60 to 61 °C
O=[N+]([O-])c1ccc(Oc2ccc(Cl)cc2Cl)cc1Oc1ccc(Cl)cc1Cl | 91 to 93 °C
CCC(=NO)c1ccc(OCCOC)cc1 | 74 to 80 °C
CNS(=O)(=O)c1cc(OC)c(OC)c(C(=O)NCC2CCCN2C)c1 (stereo unspecified) | 111 to 112 °C
COC(=O)c1cccc(I)c1C(=O)NC(C)(C)CS(C)=O (stereo unspecified) | 151 to 152 °C
CN(C)c1cccc2c1C1=NCCN1c1c(-c3noc(C4CC4)n3)ncn1-2 | 148 to 150 °C
Cc1ccc(S(=O)(=O)n2ccc3cc(C#N)ccc32)cc1 | 129 to 131 °C
N=C(NCc1c[nH]c2ccccc12)C(Cl)(Cl)Cl | 136 to 138 °C
